According to US20170285044A1, “METHODS FOR PREDICTING AND IMPROVING THE SURVIVAL OF GASTRIC CANCER PATIENTS” (Pierian Holdings, Inc., priority 2011, published 2017):

Experiments:
[1] = system: unselected gastric cancer patients; conditions: monotherapy; Jhawer et al., 2008; cited from earlier work
[2] = system: MET-amplified SNU484 cells; format: cell-based, human; conditions: FIG. 12
Method: (§1) Multiple Drug Effect Analysis: ˜1 X10^4 cells were plated in 24-well plate and grown in appropriate growth media. Lapatinib, cMET inhibitor or both agents (combo) were added at 1 μM concentration for 4 hrs and lysed for subsequent pathway profiling.
(§2) Immuno-microarray slides were rinsed 2× with TB ST (50 mM Tris/150 mM NaCl/0.1% Tween-20, pH 7.2-7.4), blocked with 80 μL Whatman Blocking Buffer lhr at RT, then washed 2× with TBST. Serially diluted lysate controls in 80 μL dilution buffer (2% BSA/0.1% TritonX-100/TBS, pH 7.2-7.4) and samples were added to designated sub-arrays on slides, then incubated 1 hour at RT. Slides were washed 4× (3 min. each), and detector Abs were added in 80 μL of reaction buffer and incubated for 2 hours at RT. After washing slides with TB ST to remove unbound detector Abs, 80 μL of biotin-tyramide solution (5 μg/m1 in 50 mM glucose/PBS) prepared from 400 μg/mL in ethanol solution (Perkin-Elmer Life Science) was added and incubated 15 min in darkness. Glucose-oxidase (GO)/HRP-mediated tyramide signal amplification process was terminated by washing with TBST 4×, 3 min each. Local deposition of biotin-tyramide was detected by incubation with streptavidin (SA)-Alexa647 (Invitrogen) at 0.5 μg/mL in 2% BSA/0.1% Triton/TBS for 40 min. Upon completion of incubation, slides were washed 4× with TBST, dried and kept in darkness until imaged via microarray scanner. […]

NCI-87 cells = format: cell-based, human; conditions: without altering total HER2 levels, FIG. 12
Method: as §1, §2

| Structure (SMILES) | objective response [1] | HER2 activation [2] | HER2 activation (NCI-87 cells) |
| --- | --- | --- | --- |
| COc1cc2c(Oc3ccc(NC(=O)C4(C(=O)Nc5ccc(F)cc5)CC4)cc3F)ccnc2cc1OCCCN1CCOCC1 [foretinib] | failed to demonstrate an objective response |  |  |
| CS(=O)(=O)CCNCc1ccc(-c2ccc3ncnc(Nc4ccc(OCc5cccc(F)c5)c(Cl)c4)c3c2)o1 [lapatinib] |  | unable to do so | abolished |
